We go through six compounds from US6291683A, “N-arloxyethyl-alkylamines for the treatment of depression” (American Home Products Corp, priority 2000, dated 2001).

Test [1] deals with T1, 5-HT1A cloned receptor (Homo sapiens, UniProt P08908).
T1 construct: expressed in transfected cells
T1 sequence (P08908 1-422): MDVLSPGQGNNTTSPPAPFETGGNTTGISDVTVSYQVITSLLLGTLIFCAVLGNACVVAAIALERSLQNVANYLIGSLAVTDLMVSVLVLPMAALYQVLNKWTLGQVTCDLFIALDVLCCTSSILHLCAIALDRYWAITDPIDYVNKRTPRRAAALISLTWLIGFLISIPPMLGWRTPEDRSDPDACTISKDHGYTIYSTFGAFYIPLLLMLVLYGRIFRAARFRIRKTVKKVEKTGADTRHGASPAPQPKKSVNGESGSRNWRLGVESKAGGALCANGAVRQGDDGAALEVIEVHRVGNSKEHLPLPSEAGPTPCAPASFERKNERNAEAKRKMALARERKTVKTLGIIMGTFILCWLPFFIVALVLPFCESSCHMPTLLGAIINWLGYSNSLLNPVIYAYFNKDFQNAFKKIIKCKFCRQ
The experiment in a line: [35S]-GTPγS binding assay, 5-HT1A cloned receptor membrane fragments. The test is classed as biochemical. The following applies: maximum agonist response defined by excess 8-OH-DPAT. For orientation: GTPγS is a poorly hydrolysed GTP analogue; its binding reports G protein activation.

Test [2] addresses T2, serotonin transporter (Rattus norvegicus, UniProt P31652).
T2 construct: frontal cortical membranes prepared from male Sprague-Dawley rats; from tissue; host or cells: frontal cortex membranes, male Sprague-Dawley rats
Put plainly: affinity for the serotonin transporter ([3H]-paroxetine binding, rat frontal cortical membranes). Set-up: species or system rat (male Sprague-Dawley). To be noted: for inhibition at 0.1 µM: @ .1 μM, read-out: ST (% Inhib. @ .1 μM).
Procedure: Briefly, frontal cortical membranes prepared from male Sprague-Dawley rats were incubated with ^3 H-paroxetine (0.1 nM) for 60 min at 25° C. […] All reactions are terminated by the addition of ice cold Tris buffer followed by rapid filtration using a Tom Tech filtration device to separate bound from free ^3 H-paroxetine.

In test [3] the target is T3, human 5-HT1A receptor (Homo sapiens, UniProt P08908).
T3 sequence (P08908 1-422): T1 sequence (P08908 1-422)
The experiment in a line: 5-HT1A receptor binding ([3H]8-OH-DPAT displacement, membranes of 5-HT1A.CHO cells).
Procedure: Cells were maintained in DMEN supplemented with 10% fetal calf serum, non-essential amino acids and penicillin/ streptomycin.
Cells were grown to 95-100% confluency as a monolayer before membranes were harvested for binding studies. Cells were gently scraped from the culture plates, transferred to centrifuge tubes, and washed twice by centrifugation (2000 rpm for 10 min., 4° C.) in buffer (50 mM Tris; pH 7.5). The resulting pellets were aliquoted and placed at -80° C. On the day of assay, the cells were thawed on ice, and resuspended in buffer. Studies were conducted using [^3 H]8-OH-DPAT as the radioligand. The binding assay was performed in 96 well microtiter plates in a final total volume of 250 μL of buffer.

The mark [4] stands for this setting: [3H]-paroxetine 0.1 nM, 60 min, 25° C.
Setting [5] is: read-out: 5-HT1A (Ki), [3H]8-OH-DPAT 1.5 nM, 30 min, room temperature, CHO cell membranes.

Read-outs that look alike come from different tables or passages of the source.

T2 sequence (P31652 whole entry): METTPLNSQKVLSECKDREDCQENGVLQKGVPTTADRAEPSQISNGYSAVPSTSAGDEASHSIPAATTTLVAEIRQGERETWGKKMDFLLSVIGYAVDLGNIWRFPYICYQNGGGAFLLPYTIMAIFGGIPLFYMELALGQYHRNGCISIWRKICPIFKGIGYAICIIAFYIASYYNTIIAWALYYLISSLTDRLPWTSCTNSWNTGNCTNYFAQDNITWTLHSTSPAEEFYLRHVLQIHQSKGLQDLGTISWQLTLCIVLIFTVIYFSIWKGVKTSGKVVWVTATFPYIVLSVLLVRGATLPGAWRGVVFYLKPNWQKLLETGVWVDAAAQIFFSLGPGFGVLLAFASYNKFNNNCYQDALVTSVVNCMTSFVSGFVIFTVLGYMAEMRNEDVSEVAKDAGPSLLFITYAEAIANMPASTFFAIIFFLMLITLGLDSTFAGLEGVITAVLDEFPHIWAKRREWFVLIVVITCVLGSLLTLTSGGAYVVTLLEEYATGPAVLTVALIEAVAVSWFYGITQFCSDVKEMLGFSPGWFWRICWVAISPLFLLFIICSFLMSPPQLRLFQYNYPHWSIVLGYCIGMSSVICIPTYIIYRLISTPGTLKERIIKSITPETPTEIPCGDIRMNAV

In general, Emax refers to the size of the effect at its maximum, as opposed to the concentration needed. For orientation: Ki means the dissociation constant of the complex between target and ligand, obtained from inhibition or displacement. On to `c1cc(OCCNCCc2c[nH]c3ccccc23)c2c(c1)OCCO2` [Example 6, [2-(2,3-Dihydrobenzo[1,4]dioxin-5-yloxy)-ethyl]-[2-(1H-indol-3-yl)-ethyl]-amine], for which the Emax in test [1] worked out at 100%. In addition, the inhibition constant Ki in test [2] was 12 nM.
On to `Fc1ccc2[nH]cc(CCCNCCOc3cccc4c3CCC4)c2c1` [Example 13a, [3-(5-Fluoro-1H-indol-3-yl)-propyl]-[2-(indan-4-yloxy)-ethyl]-amine], for which the affinity in test [3] corresponds to a Ki of 76.9 nM. In addition, the inhibition at 0.1 µM in test [2] (setting [4]) came out at 71%.
Turning to `c1ccc(OCCNCCCc2c[nH]c3ccccc23)cc1` [Example 13d, [3-(1H-indol-3-yl)-propyl]-[2-phenoxy-ethyl]-amine], the inhibition at 0.1 µM in test [2] (setting [4]) was determined as 26%.
In the case of `Fc1ccc2[nH]cc(CCCNCCOc3ccc4c(c3)CCC4)c2c1` [Example 14], the Ki turned out to be 158 nM in test [3] and 56 nM in test [2].
With `COc1ccccc1OC(C)CNCCCc1c[nH]c2ccc(F)cc12` (stereo not drawn) [Example 17, [3-(5-Fluoro-1H-indol-3-yl)-propyl]-[2-(2-methoxy-phenoxy)propyl]amine], the Ki in test [3] (setting [5]) was determined as 14.5 nM; in test [2] (read-out: ST (Ki), [3H]-paroxetine 0.1 nM, 60 min, 25° C, Ki converted from IC50 (Cheng and Prusoff)), 16 nM. In addition, in test [1], the Emax turned out to be 97.5%.
For the compound “[3-(5-Fluoro-1H-indol-3-yl)-propyl]-[2-(2-methoxy-phenoxy)-2-phenyl-ethyl]- amine [Example 16]”, the inhibition constant Ki in test [3] (setting [5]) was found to be 43.9 nM; in test [2] ([3H]-paroxetine 0.1 nM, 60 min, 25° C, Ki converted from IC50 (Cheng and Prusoff), read-out: ST (Ki)) it was 21 nM.
